Laboratory results as given in patent publication US6083481A, “Thrombus imaging agents” (Diatide, Inc., priority 1998, dated 2000).

System: human platelets in platelet-rich plasma
Assay: Platelet aggregation inhibition assay (ADP-induced, platelet-rich plasma)
Type: cell-based
Settings: fresh human platelet-rich plasma, aggregation induced by ADP 10 to 15 micromolar; read-out: IC50 (concentration of reagent that inhibits by 50% the aggregation of human platelets)
Description: Platelet aggregation studies were performed essentially as described by Zucker (1989, Methods in Enzymol. 169: 117-133). Briefly, platelet aggregation was assayed with or without putative platelet aggregation inhibitory compounds using fresh human platelet-rich plasma comprising 300,000 platelets per microlitre. Platelet aggregation was induced by the addition of a solution of adenosine diphosphate to a final concentration of 10 to 15 micromolar, and the extent of platelet aggregation monitored using a Bio/Data aggregometer (Bio/Data Corp., Horsham. Pa.). The concentrations of platelet aggregation inhibitory compounds used were varied from 0.1 to 500 μg/mL. The concentration of inhibitor that reduced the extent of platelet aggregation by 50% (defined as the IC50) was determined from plots of inhibitor concentration versus extent of platelet aggregation. An inhibition curve for peptide RGDS was determined for each batch of platelets tested as a positive control.
*concentration of reagent that inhibits by 50% the aggregation of human
platelets in plateletrich plasma induced to aggregate by the addition of
adenosine diphosphate (ADP).

- IC50: 15 µM
Substance: GRDGVRGDFCAcm GCAcm amide [Peptide P98]
